From patent publication US20080145840A1 (priority 2003, published 2008)
Where “and” joins values, the source holds several entries; their conditions need not be identical. Identical values can stand only once. Like-named read-outs stand apart in the source and are kept apart here.

Assays:
E. coli MurB [1] = biological target: T1, E. coli MurB (Escherichia coli, UniProt P08373); assay: ITC assay of E. coli MurB activity; format: biochemical
Description: E. coli MurB was diluted in assay buffer (50 mM Tris pH 8.0, 1 mM TCEP, 20 mM KCl, 0.005% Triton X-100) to a final concentration of 1.3 nM. The buffer contained the MurB substrates at the following concentrations in the ITC test cell: 100 μM NADPH and 60 μM UDP-GlcNAc-EP. DMSO was also added at a final concentration of 2.7% (v/v).
(§1) The inhibition of E. coli MurB by (2R)-2-{2-[3-(4-tert-butylphenoxy)phenyl]-4-oxo-1,3-thiazolidin-3-yl} hexanoic acid, a 4-thiazolidinone compound, was studied by the same method. Reactions were carried in 50 mM Tris, pH 8.0, 1 mM TCEP, 20 mM KCl, 0.005% Triton, in the presence of 100 μM NADPH and 60 μM EP. The concentration of MurB was 1.3 nM.

E. coli MurB [2] = biological target: T1, E. coli MurB; assay: Absorbance method measuring NADPH depletion at 340 nm (MurB activity); format: biochemical
Description: as §1
Other kinetic measurements were performed to further characterize E. coli MurB by ITC.

E. coli MurC [3] = biological target: T2, E. coli MurC (Escherichia coli, UniProt P17952); assay: biochemical
T2 sequence (P17952 whole entry): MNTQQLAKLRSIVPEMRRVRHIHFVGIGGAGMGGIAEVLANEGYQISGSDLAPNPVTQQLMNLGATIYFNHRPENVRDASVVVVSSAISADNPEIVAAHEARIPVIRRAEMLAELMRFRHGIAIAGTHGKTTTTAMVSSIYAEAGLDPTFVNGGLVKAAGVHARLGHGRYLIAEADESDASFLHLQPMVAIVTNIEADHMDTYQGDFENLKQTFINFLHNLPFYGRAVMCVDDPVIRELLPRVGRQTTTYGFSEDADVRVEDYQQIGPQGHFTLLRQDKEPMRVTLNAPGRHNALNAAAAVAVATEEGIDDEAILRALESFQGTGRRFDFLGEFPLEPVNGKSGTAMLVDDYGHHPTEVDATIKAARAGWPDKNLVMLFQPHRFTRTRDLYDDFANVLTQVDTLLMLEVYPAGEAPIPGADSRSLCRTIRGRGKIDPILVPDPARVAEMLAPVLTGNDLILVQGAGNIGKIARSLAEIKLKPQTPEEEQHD
Description: E. coli MurC was diluted in assay buffer (50 mM Tris pH 8.0, 1 mM Tris (2-carboxyethyl) phosphine hydrochloride (TCEP), 0.01% (w/v) Triton X-100, 20 mM ammonium formate) to a final concentration of 10 nM. […] The titration was started manually after the DP signal was stabilized. A total of 16 injections (2, 2, 4, 4, 4, 4, 8, 8, 16, 16, 32, 32, 32, 32, 32, and 32 μl) were performed. Time spacing in between injections was set at 120 sec for all injections.
All the reactions were carried in 50 mM Tris, pH 8.0, 1 mM TCEP, 0.01% (w/v) Triton, and 20 mM ammonium formate. The final concentration of E. coli MurC was 10 nM. […] The reaction was initiated with the addition of MurC and placed into the test cell. AMP-PCP was dissolved in the buffer described above at a final concentration of 2.8 mM and placed into the titration syringe.

E. coli MurC [4] = biological target: T2, E. coli MurC; assay: biochemical; remark: listed apart in the source
E. coli GyrAB [5] = biological target: T3, E. coli GyrAB (Escherichia coli, UniProt P0AES6); assay: ITC assay of E. coli GyrAB ATPase activity; format: biochemical; conditions: read-out: Ki, ADP
Description: The titration was started manually after the DP signal was stabilized.
The data were analyzed as follows: the power value (μcal/sec) after each injection is subtracted from the initial power value (before any injection occurs).

E. coli GyrAB [6] = biological target: T3, E. coli GyrAB; assay: Independent assay of GyrAB enzyme activity using phosphate detection; format: biochemical; conditions: read-out: Ki, ADP

T1 sequence (P08373 whole entry): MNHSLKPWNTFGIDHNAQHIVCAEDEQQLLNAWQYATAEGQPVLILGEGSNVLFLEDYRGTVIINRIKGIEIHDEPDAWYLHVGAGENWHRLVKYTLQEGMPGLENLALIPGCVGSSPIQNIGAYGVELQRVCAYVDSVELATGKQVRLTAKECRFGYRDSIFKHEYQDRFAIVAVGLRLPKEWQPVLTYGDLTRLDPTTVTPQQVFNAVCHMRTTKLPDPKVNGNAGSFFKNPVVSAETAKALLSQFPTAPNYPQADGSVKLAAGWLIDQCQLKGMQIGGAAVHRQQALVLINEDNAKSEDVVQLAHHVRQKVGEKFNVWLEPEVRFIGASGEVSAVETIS

`NC(=O)C1=CN([C@@H]2O[C@H](COP(=O)(O)OP(=O)(O)OC[C@H]3O[C@@H](n4cnc5c(N)ncnc54)[C@H](OP(=O)(O)O)[C@@H]3O)[C@@H](O)[C@H]2O)C=CC1` [NADPH] was tested, and the Km (E. coli MurB [1]; read-out: KM, NADPH) was 9 µM and the Km (E. coli MurB [2]; read-out: KM, NADPH) was 9 µM.
In the case of `CC(=O)N[C@H]1[C@@H](OP(=O)(O)OP(=O)(O)OC[C@H]2O[C@@H](n3ccc(=O)[nH]c3=O)[C@H](O)[C@@H]2O)O[C@H](CO)[C@@H](O)[C@@H]1O[C@H](C)C(=O)O` [UDP-MurNAc], the Km (E. coli MurC [3]; ITC, read-out: KM, UDP-MurNAc) is reported as 21 µM and the Km (E. coli MurC [4]; Phosphate detection, read-out: KM, UDP-MurNAc) is reported as 19 µM.
Compound `Nc1ncnc2c1ncn2[C@@H]1O[C@H](COP(=O)(O)OP(=O)(O)O)[C@@H](O)[C@H]1O` [ADP] has a Ki (E. coli GyrAB [5]) of 18 µM and a Ki (E. coli GyrAB [6]) of 18 µM.
In the case of `C=C(O[C@H]1[C@H](O)[C@@H](CO)O[C@H](OP(=O)(O)OP(=O)(O)OC[C@H]2O[C@@H](n3ccc(=O)[nH]c3=O)[C@H](O)[C@@H]2O)[C@@H]1NC(C)=O)C(=O)O` [UDP-GlcNAc−EP, uridine diphosphate-GlcNAc-enolpyruvate], the Km (E. coli MurB [1]; read-out: KM, UDP-GlcNAc-EP) is reported as 8 µM and the Km (E. coli MurB [2]; read-out: KM, UDP-GlcNAc-EP) is reported as 6 µM.
`CCCC[C@H](C(=O)O)N1C(=O)CSC1c1cccc(Oc2ccc(C(C)(C)C)cc2)c1` (stereo partly drawn) [4-thiazolidinone analogue, (2R)-2-{2-[3-(4-tert-butylphenoxy)phenyl]-4-oxo-1,3-thiazolidin-3-yl} hexanoic acid] showed an IC50 (E. coli MurB [1]; 1.3 nM MurB, 100 μM NADPH, 60 μM UDP-GlcNAc-EP, read-out: 4-thiazolidinone analogue IC50) of 154 µM and an IC50 (E. coli MurB [2]; NADPH depletion at 340 nm, read-out: 4-thiazolidinone analogue IC50) of 101 µM.
In the case of `Nc1ncnc2c1ncn2[C@@H]1O[C@H](COP(=O)(O)OP(=O)(O)CP(=O)(O)O)[C@@H](O)[C@H]1O` [AMP-PCP, β,γ-Methyleneadenosine 5′-triphosphate], the IC50 (E. coli MurC [3]) is reported as 27 µM and the IC50 (E. coli MurC [4]; AMP-PCP IC50) is reported as 40 µM and 35 µM.
